Data on twelve compounds can be found in BindingDB's records for doi:10.1016/S0960-894X(00)80229-2 (1992).

A short description of this assay: Agonistic activity at kappa opioid receptor of rabbit vas deferens.

With `CC(=O)N1CCN(C(=O)Cc2cc(F)cc(F)c2)C(CN2CC[C@H](O)C2)C1` (stereo partly drawn) [1-[4-Acetyl-2-((S)-3-hydroxy-pyrrolidin-1-ylmethyl)-piperazin-1-yl]-2-(3,5-difluoro-phenyl)-ethanone], the IC50 (usually the concentration at which inhibition is half-maximal) came to 4.6 nM.

As to `CC(=O)N1CCN(C(=O)Cc2ccc([S+](C)[O-])cc2)C(CN2CC[C@H](O)C2)C1` (stereo partly drawn) [1-[4-Acetyl-2-((S)-3-hydroxy-pyrrolidin-1-ylmethyl)-piperazin-1-yl]-2-(4-methanesulfinyl-phenyl)-ethanone], the half-inhibitory concentration (IC50) was found to be 140 nM.

In the case of `CC(=O)N1CCN(C(=O)Cc2ccc(Cl)c(Cl)c2)C(CN2CC[C@H](O)C2)C1` (stereo partly drawn) [1-[4-Acetyl-2-((S)-3-hydroxy-pyrrolidin-1-ylmethyl)-piperazin-1-yl]-2-(3,4-dichloro-phenyl)-ethanone], the IC50 came to 0.22 nM.

`CC(=O)N1CCN(C(=O)Cc2ccc(S(C)(=O)=O)cc2)C(CN2CC[C@H](O)C2)C1` (stereo partly drawn) [1-[4-Acetyl-2-((S)-3-hydroxy-pyrrolidin-1-ylmethyl)-piperazin-1-yl]-2-(4-methanesulfonyl-phenyl)-ethanone] displayed an IC50 of 0.9 nM.

Take `COC(=O)N1CCN(C(=O)Cc2ccc(Cl)c(Cl)c2)[C@@H](CN2CCCC2)C1` [4-[2-(3,4-Dichloro-phenyl)-acetyl]-3-pyrrolidin-1-ylmethyl-piperazine-1-carboxylic acid methyl ester]: the IC50 worked out at 0.02 nM.

As to `CC(=O)N1CCN(C(=O)Cc2ccc([N+](=O)[O-])cc2)C(CN2CC[C@H](O)C2)C1` (stereo partly drawn) [1-[4-Acetyl-2-((S)-3-hydroxy-pyrrolidin-1-ylmethyl)-piperazin-1-yl]-2-(4-nitro-phenyl)-ethanone], the half-inhibitory concentration (IC50) was found to be 6.3 nM.

Take `COc1cccc(CC(=O)N2CCN(C(C)=O)CC2CN2CC[C@H](O)C2)c1` (stereo partly drawn) [1-[4-Acetyl-2-((S)-3-hydroxy-pyrrolidin-1-ylmethyl)-piperazin-1-yl]-2-(3-methoxy-phenyl)-ethanone]: the IC50 worked out at 49 nM.

On to `COc1ccc(CC(=O)N2CCN(C(C)=O)CC2CN2CC[C@H](O)C2)cc1` (stereo partly drawn) [1-[4-Acetyl-2-((S)-3-hydroxy-pyrrolidin-1-ylmethyl)-piperazin-1-yl]-2-(4-methoxy-phenyl)-ethanone], for which the IC50 was 230 nM.

In the case of `CSc1ccc(CC(=O)N2CCN(C(C)=O)CC2CN2CC[C@H](O)C2)cc1` (stereo partly drawn) [1-[4-Acetyl-2-((S)-3-hydroxy-pyrrolidin-1-ylmethyl)-piperazin-1-yl]-2-(4-methylsulfanyl-phenyl)-ethanone], the IC50 turned out to be 37 nM.

With `CC(=O)N1CCN(C(=O)Cc2ccccc2)C(CN2CC[C@H](O)C2)C1` (stereo partly drawn) [1-[4-Acetyl-2-((S)-3-hydroxy-pyrrolidin-1-ylmethyl)-piperazin-1-yl]-2-phenyl-ethanone], the concentration for half-maximal inhibition (IC50) came out at 400 nM.

In turn, `CC(=O)N1CCN(C(=O)Cc2cccc([N+](=O)[O-])c2)C(CN2CC[C@H](O)C2)C1` (stereo partly drawn) [1-[4-Acetyl-2-((S)-3-hydroxy-pyrrolidin-1-ylmethyl)-piperazin-1-yl]-2-(3-nitro-phenyl)-ethanone] displayed an IC50 of 14 nM.

Consider `CC(=O)N1CCN(C(=O)Cc2ccc(C(F)(F)F)cc2)C(CN2CC[C@H](O)C2)C1` (stereo partly drawn) [1-[4-Acetyl-2-((S)-3-hydroxy-pyrrolidin-1-ylmethyl)-piperazin-1-yl]-2-(4-trifluoromethyl-phenyl)-ethanone], for which the IC50 stood at 1.5 nM.
